Patent EP0772773B1, “Src SH3 BINDING PEPTIDES AND METHODS OF ISOLATING AND USING SAME” (THE UNIVERSITY OF NORTH CAROLINA, priority 1994, dated 2006)
“Also recorded” adds a separate entry of the source.

What was measured:
Src SH3-GST = assay: Biotinylated synthetic peptide direct binding ELISA on immobilized GST-SH3 fusion; settings: 10 µM biotinylated peptide; streptavidin-alkaline phosphatase ELISA, absorbance at 405 nm; Figures 7 and 8
Excerpt: (§1) The preparation of Src-GST fusion protein was first described by Smith and Johnson, in Gene (1988) 67:31, the disclosure of which is incorporated by reference herein. Briefly, pGEX-derived (Pharmacia, Piscataway, NJ) constructs expressing GST fusion proteins containing the SH3 domains of Src, Grb2, Crk, Abl, or PLCγ were obtained from Dr. Channing Der (University of North Carolina at Chapel Hill.), a construct expressing the SH3 domain of Yes was obtained from Dr. Marius Sudol (Rockefeller University). The use of the pGEX bacterial expression vector for the production of GST-SH3 fusion proteins is well-known to those in the art. See, e.g., Cicchetti, P. et al., in Science (1992) 257:803-806. Briefly, the coding region for a particular SH3 domain can be fused in-frame at the Bam HI site of pGEX-2T. Thus, fusion proteins were prepared as per the manufacturer's instructions, and quantified by Coomassie Blue staining of SDS-polyacrylamide gels. Microtiter wells were coated with 5-20 µg GST-SH3 fusion protein in 100 mM NaHCO3, pH 8.5, blocked with 100 mM NaHCO3 (pH 8.5) 1% BSA, and washed. All washes consisted of five applications of 1XPBS, 0.1% Tween 20, 0.1% BSA (Buffer A). Where appropriate, the amount of protein bound to each well was quantified with an anti-GST antibody-based ELISA (Pharmacia, Piscataway, NJ), and with a GST-binding phage, isolated during the course of this work.
Bacterially expressed Src SH3 glutathione-s-transferase (Src-GST) fusion protein was purified from bacterial lysates using glutathione agarose 4B (Pharmacia), according to the manufacturer's instructions. Bound Src-GST fusion protein was eluted from the glutathione agarose with 10 mM glutathione in PBS. Microtiter wells were then coated with Src-GST fusion protein (1-10 µg/well, in 50 mM NaHCO3, pH 8.5) overnight at 4 °C. To block non-specific binding of phage, 100 µL 1% BSA in 100 mM NaHCO3, pH 8.5, was added to each well and allowed to incubate at room temperature for 1 hour. The wells were then washed five times with 200 µL PBS, 0.1% Tween 20, 0.1% BSA (Buffer A).
(§2) Peptides were obtained from Research Genetics (Birmingham, AL), Chiron Mimotopes (Victoria, Australia), or synthesized by conventional techniques by Dr. J. Mark Carter of cytogen Corporation (Princeton, NJ). Peptide purity was assessed by HPLC and/or mass spectrometry. Biotinylated peptides were synthesized with either a KSGSG (SEQ ID NO:103) or a GSGS (SEQ ID NO:104) peptide linker (a spacer) between the biotin and the N-terminus of the peptide. Binding experiments were performed as above, excepting the use of 10 µM peptide instead of phage. Bound biotinylated peptide was detected with streptavidin conjugated to alkaline phosphatase (Sigma chemical Co., st. Louis, MO). After one hour incubation period at room temperature, the wells were washed, and a solution of 3 mM p-nitrophenyl-phosphate (US Biochemicals, Cleveland, OH) in 50 mM NaCO3 (pH 9.8), and 50 mM MgCl2 was added and color allowed to develop. Signals were read with an ELISA plate reader (Molecular Devices, Menlo Park, CA) at 405 nm wavelength. Binding experiments were performed in triplicate.

SH3 domains [1] = assay: Relative specificity of peptide binding across SH3 domains derived from different proteins; settings: synthetic peptides, compared with 7-mer RPLPPLP, Figures 7 and 8
Excerpt: as §1, §2

Yes SH3-GST = assay: Biotinylated synthetic peptide direct binding ELISA on immobilized GST-SH3 fusion; settings: 10 µM biotinylated peptide, absorbance at 405 nm, Figure 8
Excerpt: as §1, §2

Grb2-GST = assay: as above; settings: 10 µM biotinylated peptide, absorbance at 405 nm, Figure 8
Excerpt: as §1, §2

PLCγ1 SH2SH3-GST = assay: as above; settings: 10 µM biotinylated peptide, absorbance at 405 nm, Figure 8
Excerpt: as §1, §2

NIH 3T3 fibroblasts = assay: Fluorescence staining of fixed fibroblasts with biotinylated peptides and streptavidin-Cy3; type: cell-based; settings: fixed NIH 3T3 fibroblasts; biotinylated peptide, streptavidin-Cy3; Figure 11
Experimental: Thus, NIH 3T3 fibroblasts were cultured in vitro on glass coverslips coated with fibronectin. After two days of growth at 37 °C, the cells were fixed for one hour at room temperature in the presence of 2% paraformaldehyde (pH 7.5). The coverslips were washed with PBS-0.1% Tween 20 several times to remove the fixative. Next, the coverslips were dipped into acetone (chilled at -20 °C) for approximately 20 seconds and allowed to air-dry. The coverslips were washed again with PBS-0.1% Tween 20, containing BSA (1 mg/mL), and incubated for 2 hours at room temperature with different biotinylated peptides in PBS-0.1% Tween 20. The coverslips were washed and then incubated with 1 mg/mL streptavidin-Cy3 (Jackson Immunoresearch Co., West Grove, PA) for 1 hour at room temperature. Finally, the coverslips were washed in PBS-0.1% Tween 20, mounted in a glycerol solution on a glass slide, and viewed with a Nikon Optiphot epifluorescence microscope and a 60x oil immersion lens.

SH3 domains [2] = assay: Relative specificity of peptide binding across SH3 domains derived from different proteins; settings: not tested
[3] = target: Src and PI-3' Kinase SH3 domains; settings: Yu et al. / Chen et al., biased library peptides; read-out: binding affinity; cited from earlier work

KISPPTPKPKPPRPLPV [reference compound]
binding to Src SH3-GST (Src SH3-GST): less well than the library-derived peptides

GPHRRLPPTPATR
binding to Src SH3-GST (Src SH3-GST): much more avidly than the 7-mer | relative binding affinity / specificity for SH3 domains (SH3 domains [1]): specific to Src family SH3 domains | relative binding affinity / specificity for SH3 domains (SH3 domains [1]; listed as GPHRRLPPPTPATR): avid binding affinity to SH3 domains relative to the 7-mer | binding to Yes SH3-GST (Yes SH3-GST): much more avidly than the 7-mer | binding to Grb2 SH3 domain (Grb2-GST): little affinity | binding to PLCγ SH3 domain (PLCγ1 SH2SH3-GST): little affinity

ANPSPATRPLPTR
relative binding affinity / specificity for SH3 domains (SH3 domains [1]): binding affinities comparable to the core consensus sequence; also recorded: avid binding affinity to SH3 domains relative to the 7-mer | relative binding affinity / specificity for SH3 domains (SH3 domains [1]; listed as AHPSPATRPLPTR): Src family specificity similar to GPHRRLPPTPATR

GILAPPVPPRNTR
binding to Src SH3-GST (Src SH3-GST): much more avidly than the 7-mer | relative binding affinity / specificity for SH3 domains (SH3 domains [1]): binds generically to a broad range of SH3 domains; also recorded: avid binding affinity to SH3 domains relative to the 7-mer; also recorded: more generic SH3 domain-binding characteristics | binding to Yes SH3-GST (Yes SH3-GST): much more avidly than the 7-mer | fluorescence staining / cellular localization (NIH 3T3 fibroblasts): localize within cellular compartments thought to contain Src or Src-related proteins

biotin-spacer-LAPPKPPLPEGEV [reference compound]
fluorescence staining / cellular localization (NIH 3T3 fibroblasts): relatively "dark" features

biotin-spacer-GILAPPVPPRNTR
fluorescence staining / cellular localization (NIH 3T3 fibroblasts): bright display of fluorescence activity

biotin-spacer-RSTPRPLPPLPTTR
fluorescence staining / cellular localization (NIH 3T3 fibroblasts): bright display of fluorescence activity

RSTPRPLPMLPTTR
binding to Src SH3-GST (Src SH3-GST): much more avidly than the 7-mer; also recorded: strong specific binding affinity | relative binding affinity / specificity for SH3 domains (SH3 domains [1]): highly specific for SH3 domain of Src, Yes, and other Src-related proteins | binding to Yes SH3-GST (Yes SH3-GST): much more avidly than the 7-mer

RSTPAPPVPPRTTR
surmised binding to a variety of SH3 domains (SH3 domains [2]): strong but generic binding

GTVEPVPPPVPPRRRPESA [reference compound]
binding to Src SH3-GST (Src SH3-GST): less well than the library-derived peptides

biotin-spacer-VLKRPLPIPPVTR
fluorescence staining / cellular localization (NIH 3T3 fibroblasts): bright display of fluorescence activity

RSTPRPLPPLPTTR [representative consensus motif with R8C.YES3.5 flanking residues]
binding to Src SH3-GST (Src SH3-GST): much more avidly than the 7-mer; also recorded: strong specific binding affinity | relative binding affinity / specificity for SH3 domains (SH3 domains [1]): highly specific for SH3 domain of Src, Yes, and other Src-related proteins | binding to Yes SH3-GST (Yes SH3-GST): much more avidly than the 7-mer | fluorescence staining / cellular localization (NIH 3T3 fibroblasts): localize within cellular compartments thought to contain Src or Src-related proteins

RPLPPLP
binding to Src SH3-GST (Src SH3-GST): only weakly | relative binding affinity / specificity for SH3 domains (SH3 domains [1]): less effective in binding to target SH3 domains

RKLPPRPRR ["composite" peptide of the literature]
Kd [3]: 7.6 µM
